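Step 1: Grow cells in 96-well plates. Step 2: Expose to compound for 48 hours at 5 concentrations. Step 3: Interpolate endpoints linearly; if unreached, use highest concentration. At the GI50, growth is halved.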 Active and inactive are the calls of the source. Rule as the data show it: active = GI50 up to about 1.1 µM and inactive = higher.
Tests used:
Test in all cases: DTP human tumour cell line panel, 48 h
[1] = tested on: ACHN
[2] = tested on: EKVX
[3] = tested on: HCT-15
[4] = tested on: HOP-62
[5] = tested on: HOP-92
[6] = tested on: Hs-578T
[7] = tested on: IGROV-1
[8] = tested on: MCF7
[9] = tested on: MDA-MB-231
[10] = tested on: MDA-MB-435
[11] = tested on: NCI-H460
[12] = tested on: NCI/ADR-RES
[13] = tested on: OVCAR-4
[14] = tested on: RPMI-8226
[15] = tested on: SF-268
[16] = tested on: SNB-19
[17] = tested on: SNB-75
[18] = tested on: SR
[19] = tested on: T47D
[20] = tested on: UACC-62

Measured: GI50

CCOC(=O)C(Cc1cccn1C(=O)OC(C)(C)C)[N+](=O)[O-] (stereo unspecified)
24.3 µM: [3]
inactive: [1] 22.3 µM | [2] 48.3 µM | [4] 23.9 µM | [5] 28.2 µM | [6] 29.9 µM | [7] 21.5 µM | [8] 37.7 µM | [9] 19 µM | [10] 26.6 µM | [11] 24.3 µM | [12] 44.7 µM | [13] 28.6 µM | [14] 20.5 µM | [15] 33.9 µM | [16] 25.2 µM | [17] 23.7 µM | [18] 19 µM | [19] 33.4 µM | [20] 21.5 µM

[N-]=[N+]=NC1=C(C(=O)c2ccccc2)C(=O)c2cccc3cccc1c23
inactive: [1] 37.7 µM | [2] 19.1 µM | [4] 17.1 µM | [5] 28.4 µM | [6] 20.7 µM | [7] 10.1 µM | [8] 6.79 µM | [9] 23.4 µM | [10] 51.5 µM | [12] 67.3 µM | [13] 39.5 µM | [14] 37.2 µM | [15] 17.1 µM | [16] 28.1 µM | [17] 15.8 µM | [18] 10.6 µM | [19] 78.3 µM | [20] 31.3 µM

C1=N\c2ccc(cc2)/N=C\c2ccc(cc2)OCc2cccc(n2)COc2ccc/1cc2
> 100 µM: [3]
inactive: [1] > 100 µM | [2] > 100 µM | [4] > 100 µM | [5] > 100 µM | [6] > 100 µM | [7] > 100 µM | [8] > 100 µM | [9] > 100 µM | [10] > 100 µM | [11] > 100 µM | [12] > 100 µM | [13] > 100 µM | [14] > 100 µM | [15] > 100 µM | [16] > 100 µM | [17] > 100 µM | [18] > 100 µM | [19] > 100 µM | [20] > 100 µM

CCOC(=O)/C1=C(\C)N(Cc2ccccc2)C(=O)c2ccccc2C(=O)c2c(OC(C)=O)ccc(OC(C)=O)c21
69.3 µM: [3]
inactive: [1] > 100 µM | [2] 18.3 µM | [4] 40.6 µM | [5] 12.7 µM | [6] 33.5 µM | [7] 21.9 µM | [8] 21.1 µM | [9] > 100 µM | [10] 47.6 µM | [11] 39.4 µM | [12] 31.8 µM | [13] 24.9 µM | [14] 18.9 µM | [15] 43.6 µM | [16] > 100 µM | [17] > 100 µM | [18] 20.5 µM | [19] > 100 µM | [20] 53.2 µM

O=[As](O)(O)c1ccc(NCc2ccccc2)cc1
> 100 µM: [3]
inactive: [1] > 100 µM | [2] > 100 µM | [4] > 100 µM | [5] > 100 µM | [6] 58.9 µM | [7] > 100 µM | [8] > 100 µM | [9] > 100 µM | [10] > 100 µM | [11] > 100 µM | [12] > 100 µM | [13] > 100 µM | [14] > 100 µM | [15] > 100 µM | [16] > 100 µM | [17] > 100 µM | [18] > 100 µM | [19] > 100 µM | [20] > 100 µM

CCOn1cc(C[C@@]2(O)C(=O)OC3[C@@H](O)CO[C@@]32O)c2ccccc21 (stereo partly specified)
> 100 µM: [3]
inactive: [1] > 100 µM | [2] > 100 µM | [4] > 100 µM | [5] > 100 µM | [6] > 100 µM | [7] > 100 µM | [8] > 100 µM | [9] > 100 µM | [10] > 100 µM | [11] > 100 µM | [12] > 100 µM | [13] > 100 µM | [14] > 100 µM | [15] > 100 µM | [16] > 100 µM | [17] > 100 µM | [18] > 100 µM | [19] > 100 µM | [20] 46.7 µM

CCOC(=O)Oc1cc2c(c(OC)c1OC)-c1ccc(SC)c(=O)cc1C(NC(=O)C(F)(F)F)CC2 (stereo unspecified)
inactive: [13] 2.01 µM | [19] 8.97 µM
0.00221 µM: [3]
active: [1] 0.00224 µM | [2] 0.201 µM | [4] 0.00191 µM | [5] 0.00604 µM | [6] < 0.001 µM | [7] 0.0022 µM | [8] < 0.001 µM | [9] 0.00172 µM | [10] < 0.001 µM | [11] 0.00199 µM | [12] 0.0102 µM | [14] < 0.001 µM | [15] 0.00196 µM | [16] 0.00316 µM | [17] < 0.001 µM | [18] 0.00128 µM | [20] 0.00108 µM

Cc1c(CCCl)c(=O)n2c([nH]c3ccccc32)c1C#N
active: [18] 0.527 µM
1.57 µM: [3]
inactive: [1] 1.43 µM | [2] 1.84 µM | [4] 1.82 µM | [5] 1.5 µM | [6] 3.22 µM | [7] 1.77 µM | [8] 1.61 µM | [9] 1.52 µM | [10] 1.83 µM | [11] 1.72 µM | [12] 1.27 µM | [13] 1.77 µM | [14] 1.3 µM | [15] 1.95 µM | [17] 1.45 µM | [19] 1.51 µM | [20] 1.34 µM

COC(=O)C(COC(=O)/C=C/c1ccc(OC(C)=O)c(OC(C)=O)c1)NC(=O)/C=C/c1ccc(OC(C)=O)c(OC(C)=O)c1 (stereo unspecified)
25.5 µM: [3]
inactive: [1] 25.6 µM | [2] 25.5 µM | [4] 23 µM | [5] 32.7 µM | [6] 30.3 µM | [7] 43.6 µM | [8] 28.3 µM | [9] 14.9 µM | [10] 28.3 µM | [11] 21.3 µM | [12] 45.8 µM | [13] 20.7 µM | [14] 19.6 µM | [15] > 10 µM | [16] 22.9 µM | [17] 29.9 µM | [18] 18 µM | [19] 16.6 µM | [20] 15 µM

O=C(O)c1c2c(cc3c1CC1(Cc4ccccc4C1)C3)CCC2
inactive: [1] 32.7 µM | [2] 40.6 µM | [4] > 100 µM | [5] 14.9 µM | [6] 63.8 µM | [7] 59.4 µM | [8] 96.2 µM | [9] 95.7 µM | [10] > 100 µM | [11] 25.9 µM | [12] 35.4 µM | [13] 58.2 µM | [14] 33.9 µM | [15] > 100 µM | [17] > 100 µM | [18] 52.8 µM | [19] 77.1 µM | [20] > 100 µM
82.4 µM: [3]

NC(CSC1c2ccccc2-c2ccccc21)C(=O)O (stereo unspecified)
inactive: [1] > 100 µM | [2] > 100 µM | [4] > 100 µM | [5] > 100 µM | [6] 23.9 µM | [7] > 100 µM | [8] > 100 µM | [9] > 100 µM | [10] > 100 µM | [11] > 100 µM | [12] > 100 µM | [13] > 100 µM | [14] > 100 µM | [16] > 100 µM | [17] > 100 µM | [18] 69.2 µM | [19] > 100 µM | [20] > 100 µM
> 100 µM: [3]

CC(C)C(/C=C/c1ccccc1)=N\NC(=S)NN
active: [18] 0.546 µM
inactive: [1] 40.6 µM | [2] 38 µM | [4] > 84.1 µM | [5] 36.4 µM | [6] 80.5 µM | [7] 67.8 µM | [8] 30.6 µM | [9] > 100 µM | [10] 49.5 µM | [11] 40.6 µM | [12] 41.6 µM | [13] 50.5 µM | [14] 14.2 µM | [15] 20.7 µM | [16] > 100 µM | [17] > 100 µM | [19] 47 µM | [20] 35.3 µM
31.6 µM: [3]

COP(=O)(Cc1ccc(/C=C/C#N)o1)OC
> 100 µM: [3]
inactive: [2] > 100 µM | [4] > 100 µM | [5] > 100 µM | [6] 62.2 µM | [7] > 100 µM | [8] > 100 µM | [9] > 100 µM | [10] > 100 µM | [11] > 100 µM | [12] > 100 µM | [13] > 100 µM | [14] > 100 µM | [15] > 100 µM | [16] > 100 µM | [17] > 100 µM | [18] > 100 µM | [19] > 100 µM | [20] > 100 µM

COc1cc(/C=N\NC(=O)C[N+](C)(C)C)cc(OC)c1OC
> 10 µM: [3]
inactive: [1] > 10 µM | [4] > 10 µM | [5] > 10 µM | [6] > 10 µM | [7] > 10 µM | [8] > 10 µM | [9] > 10 µM | [10] > 10 µM | [12] > 10 µM | [13] > 10 µM | [14] > 10 µM | [15] > 10 µM | [16] > 10 µM | [17] > 10 µM | [18] > 10 µM | [19] > 10 µM | [20] > 10 µM

CN(C)/C=N/CCN1CCOCC1
inactive: [1] > 100 µM | [2] > 100 µM | [4] > 100 µM | [5] > 100 µM | [6] > 100 µM | [7] > 100 µM | [8] > 100 µM | [9] > 100 µM | [10] > 100 µM | [12] > 100 µM | [13] > 100 µM | [14] > 100 µM | [15] > 100 µM | [16] > 100 µM | [17] 97.7 µM | [18] > 100 µM | [19] > 100 µM | [20] > 100 µM
> 100 µM: [3]

From ChEMBL document CHEMBL1201862, “PubChem BioAssay data set” (2004)
